{"source": "patent US4200650A", "about": "“2-Amino-cyclopent-1-ene-1-thiocarboxylic acid-disulfides to treat noradrenergic malfunctions” (Richter Gedeon Vegyeszeti Gyar Rt., priority 1976, dated 1980)", "key": {"dopamine-β-hydroxylase [1]": {"system": "dopamine-β-hydroxylase", "conditions": "literature, cited from earlier work"}, "dopamine-β-hydroxylase [2]": {"system": "dopamine-β-hydroxylase", "test": "Determination of noradrenaline and dopamine levels of brain (dopamine-β-hydroxylase inhibiting effect)", "format": "in vivo, male Wistar rats", "conditions": "i.p., 4 hours, ± standard error", "protocol": "(§1) The dopamine-β-hydroxylase inhibiting effects of the new compounds according to the invention were examined by the following tests:\n(§2) The tests were performed on male Wistar rats weighing 150 to 200 g. The dopamine-β-hydroxylase inhibiting effects of the compounds were evaluated by determining the change of noradrenaline, dopamine and adrenaline levels of the cerebrum, heart, spleen and adrenal gland. The serotonine and 5-hydroxy-indolylacetic acid levels of the cerebrum were also determined. The measurements were performed as follows:\n(§3) The animals were decapitated, the cerebrum, heart, spleen and adrenal gland were removed quickly, and the organs were frozen by placing them onto a metal sheet cooled with dry ice. The frozen organs were stored for maximum one night at -20° C.\n(§4) Determination of the noradrenaline, dopamine, serotonine and 5-hydroxy-indolylacetic acid contents of brain\nThe brains were homogenized in 10 parts by volume of 0.4 n perchloric acid. The homogenized mixture was stored at -20° C. overnight, thereafter it was thawed and centrifuged as described above. A sample of the homogenized mixture corresponding to 0.5 g of brain was removed, the pH of the sample was adjusted to 8.0±0.1 with 0.1 molar tris-buffer of the above composition, and the sample was processed as described above for the determination of the noradrenaline content of heart and spleen, with the difference that 1.5 ml of 0.05 n perchloric acid were applied as eluting agent. 0.5 ml of the eluate were applied to determine the noradrenaline and dopamine contents. The measurement was performed as described above, with the difference that samples of 0.5 ml were applied for the recording of the fluorescency of noradrenaline. The residua was placed for 50 minutes into a drying oven heated to 100° C., thereafter the sample was cooled with ice water, and the fluorescency of dopamine was recorded at wavelengths of 325 nm (excitation) and 380 nm (emission).\n(§5) In a further test series the serotonine and 5-hydroxy-indolylacetic acid contents were also determined, beside the determination of the noradrenaline and dopamine content, from the same sample. In this instance the brains were homogenized in 10 ml of 75% ethanol, 0.2 ml of EDTA-Na2 and 5% of ascorbic acid were added to the homogenized mixtures, and the homogenized mixtures were maintained at -20° C. overnight. The mixtures were centrifuged as described above, and 5.0 ml samples of the supernatant were removed. The samples were diluted with equal volumes of distilled water, and poured onto ion exchange columns of 0.5×1.5 cm dimensions, filled with buffered Amberlite CG-30 (200 to 400 mesh). The columns were washed with 5 ml of distilled water followed by 1.0 ml of 0.2 n hydrochloric acid, and the first effluent and the aqueous wash were collected for the determination of 5-hydroxy-indolylacetic acid. Elution was continued with further 1.2 ml of 0.2 n hydrochloric acid in order to remove noradrenaline, dopamine and serotonine. Samples of 0.3 ml were used for the determinations.\n(§6) Noradrenaline and dopamine were determined by the method of Shellenberger, modified as described above, whereas serotonine was determined by the method of Curzon et al. (Brit. J. Pharmacol. 39, 653/1970/). The basic method was modified as follows: A 0.5% solution of ortho-phthal(di)aldehyde in absolute ethanol was diluted with 10 n hydrochloric acid to 50-fold of its original volume, and 0.6 ml of the resulting 0.01% ortho-phthal(di)aldehyde solution were added immediately to 0.5 ml of the serotonine-containing sample. The sample was placed into a hot water bath for 10 minutes, thereafter cooled with tap water, and the fluorescency was recorded at wavelengths of 360 nm (excitation) and 490 nm (emission).\nIn the tests disulfiram, 2,2-dipyridyl, bis(1-methyl-4-homopiperazinyl-thriocaronyl)-disulfide, sodium diethyldithiocarbamate and N-phenyl-N'-(2-thiazolyl)-thiourea were applied as reference substances. […]"}, "[3]": {"system": "serotonine and 5-hydroxy-indolylacetic acid levels of the cerebrum", "test": "Determination of serotonine and 5-hydroxy-indolylacetic acid levels of brain", "format": "in vivo, male Wistar rats", "conditions": "i.p., 200 mg/kg, 4 hours; ± standard error", "protocol": "as §2, §3, §4, §5, §6\n5-Hydroxy-indolylacetic acid was determined from the mixture of the first effluent and the aqueous wash. 10 ml of distilled water and 0.2 ml of concentrated hydrochloric acid were added to the mixture, and the sample was poured onto a 0.8×4.0 cm column filled with Sephadex G-10. The column was washed with 15 ml of 0.1 n hydrochloric acid followed by 1.8 to 2.0 ml of 0.02 n aqueous ammonia, and then 5-hydroxyindolylacetic acid was eluted with further 2.0 ml of aqueous ammonia. 0.5 ml samples were used in the measurements, and the determination was performed according to the method of Korf et al. (Biochem. Pharmacol. 20, 659/1971/).\n(§7) In the tests disulfiram, 2,2-dipyridyl, bis(1-methyl-4-homopiperazinyl-thriocaronyl)-disulfide, sodium diethyldithiocarbamate and N-phenyl-N'-(2-thiazolyl)-thiourea were applied as reference substances. The values indicated in Table 1 are the percentages in relation to the amine levels of the controls measured in the same tests (± standard error). The statistical calculations were performed on a TPA/i type computer, using Student's t test."}, "dopamine-β-hydroxylase [4]": {"system": "dopamine-β-hydroxylase", "test": "Determination of the noradrenaline content of spleen", "format": "in vivo, male Wistar rats", "conditions": "i.p., 4 hours", "protocol": "as §1, §2, §3\n(§8) Determination of the noradrenaline content of heart and spleen\n(§9) The organs were weighed in frozen state and then homogenized in 5.0 ml of 0.4 n perchloric acid containing 0.05% of EDTA-Naa and 0.1% of Na2 S2 O5. The homogenized mixtures were centrifuged as described above for the treatment of adrenal gland, the supernatants were decanted, and the pH was adjusted to 8.0±0.1 with a 0.1 molar tris buffer containing 20 g/l of NaOH and 25 g/l of EDTA-Na2. 100 mg of prepared Al2 O3 (Anton et al.: J. Pharm. Ther. 138, 360/1962/) were added to the samples, and the mixtures were shaken mechanically for 20 minutes. Thereafter Al2 O3 was washed with 2×10 ml of distilled water, and noradrenaline was eluted with 1.0 ml of 0.05 n perchloric acid. 0.5 ml samples of the eluate were applied for the determination of noradrenaline. Noradrenaline was determined according to the method of Shellenberger et al. (Anal. Biochem. 39, 356/1971/), with the following modifications of the basic procedure: 0.5 ml of 0.1 molar Na-K-phosphate buffer, containing 9 g/l of EDTA-Na2, were added to 0.5 ml of the eluate, and the catecholamines (noradrenaline in the examination of heart and spleen and noradrenaline and dopamine in the examination of the cerebrum) were oxidized with 0.1 ml of a 0.1 n iodine solution in 5% potassium iodide. After exactly 2 minutes oxidation was stopped by adding 0.25 ml of a 2.5% sodium sulfite solution in 4.4 n aqueous sodium hydroxide to the mixture. 2 minutes after the introduction of the alkaline sulfite solution 0.2 ml of concentrated acetic acid were added to the samples, upon which the pH decreased to 4.4 to 4.5 Thereafter the samples were placed for 5 minutes into a drying oven heated to 100° C., and then the samples were cooled with ice water. The fluorescency of noradrenaline was measured with an OPTON spectrophotometer at wavelengths of 380 nm (excitation) and 490 nm (emission).\nas §7"}, "dopamine-β-hydroxylase [5]": {"system": "dopamine-β-hydroxylase", "test": "Determination of the adrenaline content of adrenal gland", "format": "in vivo, male Wistar rats", "conditions": "i.p., 4 hours, ± standard error", "protocol": "as §1, §2, §3\nDetermination of the adrenaline content of adrenal gland\nThe adrenal glands were freed from fat and homogenized in 3.0 ml of ice-cold 0.4 n perchloric acid. The homogenized mixtures were centrifuged for 10 minutes at 0° C. with a speed of 3200 r.p.m. using a Janetzky K-70 type centrifuge. 0.05 ml samples were taken from the supernatant, and the adrenaline level was determined directly by the method of Laverty et al. (Anal. Biochem. 22, 269/1968/).\nas §7"}, "dopamine-β-hydroxylase [6]": {"system": "dopamine-β-hydroxylase", "test": "Determination of the noradrenaline content of heart", "format": "in vivo, male Wistar rats", "conditions": "i.p., 4 hours, ± standard error", "protocol": "as §1, §2, §3, §8, §9, §7"}}}
{"smiles": "CCCCc1ccc(C(=O)O)nc1", "note": "[Fusaric acid, 5-butyl-picolinic acid]", "values": [{"measurement": "dopamine-β-hydroxylase inhibiting effects, in words", "setting": "dopamine-β-hydroxylase [1]", "value": "strong dopamine-β-hydroxylase inhibiting effects"}]}
{"smiles": "NNc1nncc2ccccc12", "note": "[Hydralazine]", "values": [{"measurement": "dopamine-β-hydroxylase inhibiting effects, in words", "setting": "dopamine-β-hydroxylase [1]", "value": "possess dopamine-β-hydroxylase inhibiting effects"}]}
{"smiles": "Cn1cc[nH]c1=S", "note": "[methimazol]", "values": [{"measurement": "dopamine-β-hydroxylase inhibiting effects, in words", "setting": "dopamine-β-hydroxylase [1]", "value": "possess dopamine-β-hydroxylase inhibiting effects"}]}
{"smiles": "S=C(Nc1ccccc1)Nc1nccs1", "note": "[Compound U-14624, N-phenyl-N'-(2-thiazolyl)-thiourea, reference compound]", "values": [{"measurement": "Brain DA (dopamine) level, percentages in relation to the controls", "setting": "dopamine-β-hydroxylase [2]; 200 mg/kg", "value": 121, "unit": "%"}, {"measurement": "Brain NA (noradrenaline) level, percentages in relation to the controls", "setting": "dopamine-β-hydroxylase [2]; 200 mg/kg", "value": 31.6, "unit": "%"}, {"measurement": "Brain 5-HIAA (5-hydroxy-indolylacetic acid) level, percentages in relation to the controls", "setting": "[3]", "value": 175, "unit": "%"}, {"measurement": "Brain SE (serotonine) level, percentages in relation to the controls", "setting": "[3]", "value": 137, "unit": "%"}, {"measurement": "Spleen NA (noradrenaline) level, percentages in relation to the controls", "setting": "dopamine-β-hydroxylase [4]; 200 mg/kg, ± standard error", "value": 111, "unit": "%"}, {"measurement": "Adrenal gland AD (adrenaline) level, percentages in relation to the controls", "setting": "dopamine-β-hydroxylase [5]; 200 mg/kg", "value": 72, "unit": "%"}, {"measurement": "Heart NA (noradrenaline) level, percentages in relation to the controls", "setting": "dopamine-β-hydroxylase [6]; 200 mg/kg", "value": 106, "unit": "%"}]}
{"smiles": "CN1CCCN(C(=S)SSC(=S)N2CCCN(C)CC2)CC1", "note": "[FLA-63, bis(1-methyl-4-homopiperazinyl)-thiocarbonyl-disulfide, reference compound]", "values": [{"measurement": "Brain DA (dopamine) level, percentages in relation to the controls", "setting": "dopamine-β-hydroxylase [2]; 50 mg/kg", "value": 118, "unit": "%"}, {"measurement": "Brain NA (noradrenaline) level, percentages in relation to the controls", "setting": "dopamine-β-hydroxylase [2]; 50 mg/kg", "value": 24.6, "unit": "%"}, {"measurement": "dopamine-β-hydroxylase inhibition under in vivo conditions, in words", "setting": "dopamine-β-hydroxylase [1]; in vivo", "value": "one of the most potent dopamine-β-hydroxylase inhibitors under in vivo conditions"}, {"measurement": "Spleen NA (noradrenaline) level, percentages in relation to the controls", "setting": "dopamine-β-hydroxylase [4]; 50 mg/kg", "value": 58, "unit": "%"}, {"measurement": "Adrenal gland AD (adrenaline) level, percentages in relation to the controls", "setting": "dopamine-β-hydroxylase [5]; 50 mg/kg", "value": 43, "unit": "%"}, {"measurement": "Heart NA (noradrenaline) level, percentages in relation to the controls", "setting": "dopamine-β-hydroxylase [6]; 50 mg/kg", "value": 96, "unit": "%"}]}
{"smiles": "NOCc1ccccc1", "note": "[benzyloxyamine]", "values": [{"measurement": "dopamine-β-hydroxylase inhibiting effects, in words", "setting": "dopamine-β-hydroxylase [1]", "value": "exert dopamine-β-hydroxylase inhibiting effects"}, {"measurement": "duration of activity, in words", "setting": "dopamine-β-hydroxylase [1]", "value": "exert their activities for a short period"}]}
